Reference: BindingDB's records for doi:10.1021/acs.jmedchem.8b01906 (Siteone Therapeutics, 2019)

Experiment: Binding affinity to human recombinant Nav1.7 by radioligand binding assay

Row | Compound | Kd [nM]
1 | Cc1nn([C@@H]2CCN([C@H](C)c3cc(Cl)cc(Cl)c3)C2)c2cc(F)c(C(=O)NS(=O)(=O)C3CC3)cc12 | 22
2 | CS(=O)(=O)NC(=O)c1cc(C2CC2)c(OCC2CCN(Cc3cc(C(F)(F)F)ccc3Cl)CC2)cc1F [US9546164, 580] | 3.5
